{
  "source": "patent US20110250260A1",
  "about": "“INHIBITION OF BRAIN ENZYMES INOLVED IN CEREBRAL AMYLOID ANGIOPATHY AND MACULAR DEGENERATION” (Loma Linda University Medical Center, priority 2006, published 2011)",
  "origin": "cited, not measured here",
  "key": {"[1]": {"tested_on": "liver function during hepatitis C virus infection", "conditions": "human trials"}, "[2]": {"tested_on": "cell death after ischemia in multiple tissues", "conditions": "animal models"}, "[3]": {"tested_on": "heart failure in a murine model"}, "[4]": {"tested_on": "Heme oxidase", "conditions": "experimental brain hematomas"}},
  "note": "Where a SMILES comes first, the peptide text is derived from it. The star is where a group is joined. Cbz = O=C(OCc1ccccc1)*; CH2F = FC*",
  "data": [
    {"molecule": "C[C@H](NC(=O)C(=O)Nc1ccccc1C(C)(C)C)C(=O)N[C@@H](CC(=O)O)C(=O)COc1c(F)c(F)cc(F)c1F", "note": "[IDN-6556]", "values": [
      {"measurement": "preserving liver function", "setting": "[1]", "value": "showing promise"},
      {"measurement": "side-effects", "setting": "[1]", "value": "without exhibiting serious side-effects"}
    ]},
    {"molecule": "COC(=O)C[C@H](NC(=O)[C@H](C)NC(=O)[C@@H](NC(=O)OCc1ccccc1)C(C)C)C(=O)CF", "note": "[zVAD-FMK] (Cbz-Val-Ala-Asp(OMe)-CH2F)", "values": [
      {"measurement": "reducing cell death after ischemia", "setting": "[2]", "value": "highly effective"}
    ]},
    {"molecule": "Cc1c(C(=O)N[C@H](C(=O)NC(CC(=O)O)C(=O)CF)C(C)C)n(C)c2ccccc12", "note": "(stereo partly shown) [IDN-1965]", "values": [
      {"measurement": "mortality", "setting": "[3]; compared with vehicle-treated mice", "value": "eliminate the 30% mortality"},
      {"measurement": "reduction of caspase 3-like activity", "setting": "[3]; continuous infusion", "value": 90, "unit": "%"},
      {"measurement": "reduction of terminal dUTP nick end-labeling-positive myocytes", "setting": "[3]; continuous infusion", "value": 90, "unit": "%"}
    ]},
    {"molecule": "tin-mesoporphyrin", "values": [
      {"measurement": "effects to the brain of heme oxidase inhibition", "setting": "[4]", "value": "beneficial effects to the brain"}
    ]}
  ]
}
